# From patent US10351706B2, “Near-infrared fluorescent dyes and uses thereof” (East China University of Science and Technology, priority 2015, dated 2019)
# What was measured:
# [1] = UV-visible absorption spectral test (Shimadzu UV2600 UV-visible spectrometer); format: physicochemical; details: different dyes in chloroform solution
# From the text: (§1) The following data are the spectral test data of compound 3d in different solvents (UV-visible data are taken from Shimadzu UV2600 UV-visible spectrometer and fluorescence data are taken from PTI QM4 fluorescence spectrometer):
# (§2) The following data are the spectral test data of different dyes in chloroform solution: […]
# [2] = Fluorescence spectral test (PTI QM4 fluorescence spectrometer); format: physicochemical; details: different dyes in chloroform solution
# From the text: as §1, §2
Extinction coefficient [1] [cm^−1M^−1],Maximum absorption wavelength [1] [nm],Maximum emission wavelength [2] [nm],Compound
217000,836,864,CCN(CC)c1ccc2cc3c(cc2c1)C1(c2ccccc2Oc2ccccc21)c1cc2c(cc1=C3c1ccccc1C)C=CC(=[N+](CC)CC)C=2 [Compound 1a]
131000,779,804,Cc1ccccc1C1=c2cc3c(cc2C2(c4ccccc4Oc4ccccc42)c2cc4cc(O)ccc4cc21)=CC(=O)C=C3 [Compound 4b]
